From patent publication US8808715B1, “Methods and compositions for modulating keratinocyte function” (Georgia Regents Research Institute, Inc, priority 2004, dated 2014)

What was measured:
Format in all cases: cell-based, mouse
keratin 5 promoter = experiment: Co-transfection analysis, keratin 5 promoter-luciferase reporter; conditions: 1 mM calcium, 24 hours
Description: FIGS. 15A-B illustrate that glycerol, but not xylitol or sorbitol, inhibits DNA synthesis and enhances the inhibitory effect of an elevated extracellular Ca^2+ concentration. (A) Near-confluent keratinocytes were incubated for 24 hours with 0.02 or 0.1% glycerol and DNA synthesis measured as the incorporation of [^3H] thymidine incorporation into DNA. (B) Near-confluent keratinocytes were incubated for 24 hours with the indicated concentrations of glycerol (G, squares) or equivalent concentrations of xylitol (X, circles) in SFKM containing 25 μM (control; open symbols) or 125 μM Ca^2+ (Ca^2+; closed symbols). (C) Near-confluent keratinocytes were incubated for 24 hours with the indicated concentrations of glycerol (G) or equivalent concentrations of sorbitol (S, triangles) in SFKM containing 25 μM (control; open symbols) or 125 μM Ca^2+ (Ca^2+; closed symbols) for 24 hours. [^3H]Thymidine incorporation into DNA was then determined. Values represent the means±SEM of 4 to 5 separate experiments performed in duplicate; *p<0.05, **p<0.01 versus the control value, †p<0.05 versus the value in the presence of Ca^2+ alone. […] After 24 hours cells were refed with medium containing no addition (control) or 0.2% glycerol for an additional 24 hours. Luciferase activity was then measured using a Dual Luciferase kit as directed by the manufacturer. […] The blots were quantified using the Kodak molecular imaging software. […]
The keratin 5 and keratin 10 promoter-luciferase constructs were provided by of Dr. Bogi Andersen (University of California, Irvine, Calif.); the involucrin promoter-luciferase construct was provided by Dr. Daniel Bikle (University of California, San Francisco, Calif.). […] Luciferase activity was then measured using the Dual Luciferase Reporter Assay kit (Promega, Madison, Wis.) as directed by the manufacturer.

keratin 10 promoter = experiment: Co-transfection analysis, keratin 10 promoter-luciferase reporter; conditions: 1 mM calcium, 24 hours
Description: The keratin 5 and keratin 10 promoter-luciferase constructs were provided by of Dr. Bogi Andersen (University of California, Irvine, Calif.); the involucrin promoter-luciferase construct was provided by Dr. Daniel Bikle (University of California, San Francisco, Calif.). Sub-confluent (approximately 30%) keratinocytes were transfected using TransIT-Keratinocyte according to the manufacturer's instructions. After 24 hours cells were refed with medium containing 25 μM (control) or 1 mM-Ca^2+ for an additional 24 hours. Luciferase activity was then measured using the Dual Luciferase Reporter Assay kit (Promega, Madison, Wis.) as directed by the manufacturer.

primary keratinocytes = experiment: [3H]Glycerol uptake; conditions: 24 hours
Description: Confluent primary keratinocytes were incubated for 30, 60, 90, 120, 300 or 600 seconds with SFKM containing 20 mM HEPES (for additional pH buffering), 1 μCi/mL [^3H]glycerol and 0.1% DMSO (control) or 100 nM PMA. Reactions were terminated by washing three times with ice-cold phosphate-buffered saline lacking divalent cations. The cells were subsequently solubilized in 0.3 M NaOH and aliquots of this extract subjected to liquid scintillation counting. Counts obtained from duplicate samples at each time point were averaged and graphed, and a linear equation was determined for each condition. Correlation coefficients obtained were typically 0.99 or greater (mean correlation coefficient for control was 0.992±0.002 and for PMA, 0.994±0.001). Slopes obtained from multiple experiments were averaged and analyzed statistically for significant differences between conditions.
The linearity of glycerol uptake determined above allowed measurement of uptake at a single time point to determine the effects of other treatments on this process. Thus, confluent keratinocytes were preincubated for 30 minutes with 0.1% DMSO (control) or 100 nM PMA prior to measuring [^3H]glycerol uptake as above but at 5 minutes only. Similarly, near-confluent primary keratinocytes were incubated for 24 hours with SFKM containing various calcium concentrations prior to measurement of radiolabeled glycerol uptake for 5 minutes.
Near-confluent keratinocyte cultures were incubated for 24 hours in SFKM (25 μM calcium) or SFKM containing 125 μM calcium (125 μM Ca^2+-SFKM) and the glycerol uptake assay performed as previously described in Zheng & Bollag (2003). Briefly, cells were incubated with SFKM containing 20 mM HEPES (for additional pH buffering) and 1 μCi/mL [^3H] glycerol for 5 minutes, since it has previously been shown that this time point is in the linear range of [^3H]glycerol uptake (Zheng & Bollag (2003). Reactions were terminated by rapidly washing three times with ice-cold phosphate-buffered saline lacking divalent cations (PBS-). Cells were then solubilized in 0.3 M NaOH and [^3H]glycerol uptake quantified by liquid scintillation spectroscopy.

keratinocytes = experiment: Release of radiolabel from [14C]glycerol-labeled lipids by bacterial PLD (headgroup position); conditions: 125 μM calcium pretreatment 24 hours, means±SEM
Description: Keratinocytes pretreated for 24 hours with control (25 μM calcium) or 125 μM calcium-containing medium were exposed to 0.4-0.5 μCi/mL [^14C]glycerol for an additional 30 minutes. Lipids were extracted into chloroform/methanol as described above. Dried lipid extracts were then solubilized in phospho lipase buffer (100 mM Tris, pH 7.4, 6 mM MgCl2+0.1% Triton-X100) by extensive vortexing and a short incubation at 37° C. and approximately half of each extract was transferred into a clean tube. Distilled water (untreated) or 1 IU/mL (final concentration) of Streptomyces chromofuscus PLD (Sigma, St. Louis, Mo.) diluted in distilled water (PLD-treated) was then added to each of the lipid extract samples, which were incubated at 37° C. for 60 minutes. Released headgroups were then separated from phospholipids by extraction into the aqueous layer, essentially according to the method of Folch. […] A portion of the upper aqueous layer was then collected and quantified by liquid scintillation spectrometry. PLD-released radioactivity in the aqueous phase was calculated as the amount released in the PLD-treated sample minus the amount detected in the corresponding untreated sample. […] This lipid extract was then separated by thin-layer chromatography and PG and phosphatidic acid in the samples quantified as above.

## [Ca+2] [calcium]
Keratin 5 promoter
  inhibition of keratin 5 promoter activity: 64%
Keratin 10 promoter
  inhibition of keratin 10 expression (promoter activity): 22%
Primary keratinocytes; 500 μM calcium pretreatment
  glycerol uptake relative to control: approximately equivalent to the control value
Primary keratinocytes; 1 mM calcium pretreatment
  glycerol uptake relative to control: slight but not significant inhibition
Primary keratinocytes; pre-exposure to 125 μM calcium
  increase in glycerol uptake relative to the 25 μM calcium control: 56%
Primary keratinocytes; pre-exposure to 250 μM calcium
  increase in glycerol uptake relative to the 25 μM calcium control: 41%
keratinocytes; p<0.001
  radiolabel released into aqueous fraction by bacterial PLD from lipid extracts: 4.2±0.4 fold over the control level
keratinocytes; p<0.01
  radioactivity released by bacterial PLD from isolated PG: 3.3±0.5 fold over the control level
